Experimental data: ChEMBL document CHEMBL3045122, “Synthesis, in vitro antimicrobial, antiproliferative, and QSAR studies of N-(substituted phenyl)-2/4-(1H-indol-3-ylazo)-benzamides” (Med Chem Res, 2013); call rule not given here

Experiments:
Escherichia coli [1] = test: Antibacterial activity against Escherichia coli assessed as growth inhibition after 24 hr by tube dilution method; assay type: functional
P388 = test: Cytotoxicity against Mus musculus (mouse) P388 cells assessed as growth inhibition after 72 hr by MTT assay; assay type: functional, cell-based
Aspergillus niger [2] = test: Ratio of MFC to MIC for Aspergillus niger; assay type: functional
Aspergillus niger [3] = test: Fungicidal activity against Aspergillus niger; assay type: functional
Staphylococcus aureus [4] = test: Ratio of MBC to MIC for Staphylococcus aureus; assay type: functional
Candida albicans [5] = test: Ratio of MFC to MIC for Candida albicans; assay type: functional
Staphylococcus aureus [6] = test: Bactericidal activity against Staphylococcus aureus; assay type: functional
Staphylococcus aureus [7] = test: Antibacterial activity against Staphylococcus aureus assessed as growth inhibition after 24 hr by tube dilution method; assay type: functional
Escherichia coli [8] = test: Bactericidal activity against Escherichia coli; assay type: functional
Bacillus subtilis [9] = test: Antibacterial activity against Bacillus subtilis assessed as growth inhibition after 24 hr by tube dilution method; assay type: functional
Bacillus subtilis [10] = test: Bactericidal activity against Bacillus subtilis; assay type: functional
MCF7 = test: Cytotoxicity against Homo sapiens (human) MCF7 cells assessed as growth inhibition after 72 hr by MTT assay; assay type: functional, cell-based
Candida albicans [11] = test: Antifungal activity against Candida albicans assessed as growth inhibition after 48 hr by tube dilution method; assay type: functional
HCT-116 = test: Cytotoxicity against Homo sapiens (human) HCT116 cells assessed as growth inhibition after 72 hr by MTT assay; assay type: functional, cell-based
Escherichia coli [12] = test: Ratio of MBC to MIC for Escherichia coli; assay type: functional
Bacillus subtilis [13] = test: Ratio of MBC to MIC for Bacillus subtilis; assay type: functional
Candida albicans [14] = test: Fungicidal activity against Candida albicans; assay type: functional
Aspergillus niger [15] = test: Antifungal activity against Aspergillus niger assessed as growth inhibition after 7 days by tube dilution method; assay type: functional

Row | SMILES | -logMIC (Escherichia coli [1]) | IC50 (P388) | Ratio (Aspergillus niger [2]) | MFC (Aspergillus niger [3]) [uM/ml] | Ratio (Staphylococcus aureus [4]) | Ratio (Candida albicans [5]) | MBC (Staphylococcus aureus [6]) [uM/ml] | -logMIC (Staphylococcus aureus [7]) | MBC (Escherichia coli [8]) [uM/ml] | -logMIC (Bacillus subtilis [9]) | MBC (Bacillus subtilis [10]) [uM/ml] | IC50 (MCF7) [uM/ml] | -logMIC (Candida albicans [11]) | IC50 (HCT-116) [uM/ml] | Ratio (Escherichia coli [12]) | Ratio (Bacillus subtilis [13]) | MFC (Candida albicans [14]) [uM/ml] | -logMIC (Aspergillus niger [15])
1 | COc1ccccc1NC(=O)c1ccc(/N=N\c2c[nH]c3ccccc23)cc1 | 1.47 | Not Active | 3 | 0.07 | 3 | 3 | >0.13 | 1.47 | >0.13 | 1.47 | >0.13 | 0.0865 | 1.47 | 0.1216 | 3 | 3 | 0.03 | 1.47
2 | O=C(Nc1cccc(Cl)c1)c1ccc(/N=N\c2c[nH]c3ccccc23)cc1 | 1.48 | 0.2667 uM/ml | 3 | 0.03 | 3 | 3 | >0.13 | 1.48 | >0.13 | 1.48 | >0.13 | 0.0827 | 1.48 | 0.08 | 3 | 3 | >0.13 | 1.48
3 | O=C(Nc1ccc(Cl)cc1)c1ccc(/N=N\c2c[nH]c3ccccc23)cc1 | 1.48 | 0.08 uM/ml | 3 | 0.13 | 3 | 3 | >0.13 | 1.48 | >0.13 | 1.48 | >0.13 | 0.1067 | 1.48 | 0.1867 | 3 | 3 | >0.13 | 1.48
4 | O=C(Nc1ccccc1Cl)c1ccc(/N=N\c2c[nH]c3ccccc23)cc1 | 1.78 | Not Active | 3 | 0.03 | 3 | 3 | >0.13 | 1.18 | >0.13 | 1.48 | >0.13 | 0.112 | 1.48 | 0.12 | 3 | 3 | >0.13 | 1.48
5 | O=C(Nc1ccccc1[N+](=O)[O-])c1ccc(/N=N\c2c[nH]c3ccccc23)cc1 | 1.49 | 0.0779 uM/ml | 3 | 0.03 | 3 | 3 | >0.13 | 1.49 | >0.13 | 1.79 | >0.13 | 0.1013 | 1.49 | 0.2078 | 3 | 3 | >0.13 | 1.49
6 | Cc1ccccc1NC(=O)c1ccc(/N=N\c2c[nH]c3ccccc23)cc1 | 1.45 | Not Active | 3 | 0.04 | 3 | 3 | >0.14 | 1.15 | >0.14 | 1.45 | >0.14 | 0.0734 | 1.45 | 0.5085 | 3 | 3 | >0.14 | 1.45
